Laboratory results from ChEMBL document CHEMBL4393657, “Tetrazole hybrids and their antifungal activities” (2019).
In brackets after ≈: the same amount, converted by molar mass. Values belong to the molecule of their own block, whether it stands above or below them.

Columns and labels:
Format in all cases: functional
Candida albicans [1] = experiment: Antifungal activity against Candida albicans MTCC 227 assessed as reduction in fungal cell growth incubated for 24 hrs by broth microdilution method; settings: MTCC 227, 24 h
Nakaseomyces glabratus [2] = experiment: Potency index, ratio for MIC of fluconazole to MIC of compound for antifungal activity against Candida glabrata NCIM 3236 assessed as reduction in fungal cell growth incubated for 24 hrs by broth microdilution method
Nakaseomyces glabratus [3] = experiment: Antifungal activity against Candida glabrata NCIM 3236 assessed as reduction in fungal cell growth incubated for 24 hrs by broth microdilution method; settings: NCIM 3236, 24 h
Candida tropicalis [4] = experiment: Potency index, ratio for MIC of fluconazole to MIC of compound for Antifungal activity against Candida tropicalis NCIM 3110 assessed as reduction in fungal cell growth incubated for 24 hrs by broth microdilution method
Candida tropicalis [5] = experiment: Antifungal activity against Candida tropicalis NCIM 3110 assessed as reduction in fungal cell growth incubated for 48 hrs by broth microdilution method; settings: NCIM 3110, 48 h
Aspergillus niger [6] = experiment: Antifungal activity against Aspergillus niger NCCS 1196 assessed as inhibition zone at 500 ug/ml by disk diffusion method; settings: read-out: IZ
Candida albicans [7] = experiment: Antifungal activity against Candida albicans NCCS 3471 assessed as inhibition zone at 500 ug/ml by disk diffusion method; settings: read-out: IZ
Mucor indicus = experiment: Antifungal activity against Mucor indicus
Rhizopus arrhizus = experiment: Antifungal activity against Rhizopus arrhizus
Aspergillus niger [8] = experiment: Antifungal activity against Aspergillus niger
Candida albicans [9] = experiment: Antifungal activity against Candida albicans
Aspergillus flavus [10] = experiment: Antifungal activity against Aspergillus flavus
[11] = tested on: Trichophyton mentagrophytes; experiment: Antifungal activity against Trichophyton mentagrophytes assessed as reduction in fungal cell growth incubated for 3 to 4 days by disk diffusion method
Aspergillus flavus [12] = experiment: Antifungal activity against Aspergillus flavus NCIM 524 assessed as reduction in fungal cell growth incubated for 3 to 4 days by disk diffusion method
Aspergillus fumigatus = experiment: Antifungal activity against Aspergillus fumigatus NCIM 902 assessed as reduction in fungal cell growth incubated for 3 to 4 days by disk diffusion method
Talaromyces marneffei = experiment: Antifungal activity against Penicillium marneffei assessed as reduction in fungal cell growth incubated for 3 to 4 days by disk diffusion method
Candida albicans [13] = experiment: Antifungal activity against Candida albicans MTCC 227 assessed as reduction in fungal cell growth incubated for 24 and 48 hrs by broth microdilution method
Aspergillus flavus [14] = experiment: Antifungal activity against Aspergillus flavus assessed as reduction in fungal cell growth incubated for 24 and 72 hrs by cup plate method
Candida albicans [15] = experiment: Antifungal activity against Candida albicans assessed as reduction in fungal cell growth incubated for 24 and 72 hrs by cup plate method
Candida albicans [16] = experiment: Antifungal activity against Candida albicans assessed as reduction in fungal cell growth incubated for 48 hrs by broth microdilution method
Aspergillus niger [17] = experiment: Antifungal activity against Aspergillus niger assessed as reduction in fungal cell growth incubated for 48 hrs by broth microdilution method

SMILES: CC(=O)N1N=C(Cn2cc(-c3nn(-c4ccncc4)cc3-c3nnnn3-c3ccc(C(F)(F)F)cc3)c3cc(Cl)ccc32)OC1(C)c1ccc(Cl)cc1 (stereo not given)
zone of inhibition at 500 µg/mL (Aspergillus niger [6]): 11 to 20 mm
zone of inhibition at 500 µg/mL (Candida albicans [7]): 11 to 20 mm

SMILES: O=C(O)c1cn(C2CC2)c2nc(N3CCN(CC(=O)c4nnnn4-c4ccc(Cl)cc4)CC3)c(F)cc2c1=O
MIC (Mucor indicus): 6.25 to 100 µg/mL (≈ 11.3 to 181 µM)
MIC (Rhizopus arrhizus): 6.25 to 100 µg/mL (≈ 11.3 to 181 µM)
MIC (Aspergillus niger [8]): 6.25 to 100 µg/mL (≈ 11.3 to 181 µM)
MIC (Candida albicans [9]): 6.25 to 100 µg/mL (≈ 11.3 to 181 µM)
MIC (Aspergillus flavus [10]): 6.25 to 100 µg/mL (≈ 11.3 to 181 µM)

SMILES: c1ccc(-n2nnnc2SCCCSc2nnnn2C2CC2)cc1
MIC [11]: 6.25 to 50 µg/mL (≈ 17.3 to 139 µM)
MIC (Aspergillus flavus [12]): 6.25 to 50 µg/mL (≈ 17.3 to 139 µM)
MIC (Aspergillus fumigatus): 6.25 to 50 µg/mL (≈ 17.3 to 139 µM)
MIC (Talaromyces marneffei): 6.25 to 50 µg/mL (≈ 17.3 to 139 µM)

SMILES: CC(=O)N1N=C(Cn2cc(-c3nn(-c4ccncc4)cc3-c3nnnn3-c3ccc(C(F)(F)F)cc3)c3cc(Cl)ccc32)OC1(C)c1ccc(Br)cc1 (stereo not given)
zone of inhibition at 500 µg/mL (Aspergillus niger [6]): 11 to 20 mm
zone of inhibition at 500 µg/mL (Candida albicans [7]): 11 to 20 mm

SMILES: COc1ccc(C2(C)OC(Cn3cc(-c4nn(-c5ccncc5)cc4-c4nnnn4-c4ccc(C(F)(F)F)cc4)c4cc(Cl)ccc43)=NN2C(C)=O)cc1 (stereo not given)
zone of inhibition at 500 µg/mL (Aspergillus niger [6]): 11 to 20 mm
zone of inhibition at 500 µg/mL (Candida albicans [7]): 11 to 20 mm

SMILES: COC1=CC(=O)C[C@@H](C)[C@]12Oc1c(Cl)c(OC)cc(OC)c1C2=O [GRISEOFULVIN]
MIC (Candida albicans [13]): 500 µg/mL (≈ 1420 µM)
MIC (Aspergillus flavus [14]): 10 µg/mL (≈ 28.3 µM)
MIC (Candida albicans [15]): 10 µg/mL (≈ 28.3 µM)

SMILES: CC(=O)N1N=C(Cn2cc(-c3nn(-c4ccncc4)cc3-c3nnnn3-c3ccc(C(F)(F)F)cc3)c3cc(Cl)ccc32)OC1(C)c1ccc([N+](=O)[O-])cc1 (stereo not given)
zone of inhibition at 500 µg/mL (Aspergillus niger [6]): 11 to 20 mm
zone of inhibition at 500 µg/mL (Candida albicans [7]): 11 to 20 mm

Second part, led by results:

MIC (Candida albicans [1]): 12.5 to 50 µg/mL (≈ 35.5 to 142 µM)
MIC (Nakaseomyces glabratus [3]): 12.5 to 50 µg/mL (≈ 35.5 to 142 µM)
MIC (Candida tropicalis [5]): 12.5 to 50 µg/mL (≈ 35.5 to 142 µM)
SMILES: Cc1ccc2oc(-c3ccc(F)cc3)c(OCc3nnn[nH]3)c(=O)c2c1
Ratio (Nakaseomyces glabratus [2]): 8 - 64
Ratio (Candida tropicalis [4]): 8 - 64

MIC (Mucor indicus): 6.25 to 100 µg/mL (≈ 11.6 to 186 µM)
MIC (Rhizopus arrhizus): 6.25 to 100 µg/mL (≈ 11.6 to 186 µM)
MIC (Aspergillus niger [8]): 6.25 µg/mL (≈ 11.6 µM)
MIC (Candida albicans [9]): 6.25 to 100 µg/mL (≈ 11.6 to 186 µM)
MIC (Aspergillus flavus [10]): 6.25 to 100 µg/mL (≈ 11.6 to 186 µM)
SMILES: O=C(O)c1cn(C2CC2)c2nc(N3CCN(CC(=O)c4nnnn4-c4ccc(F)cc4)CC3)c(F)cc2c1=O

MIC [11]: 6.25 µg/mL (≈ 15.2 µM)
MIC (Aspergillus flavus [12]): 6.25 µg/mL (≈ 15.2 µM)
MIC (Aspergillus fumigatus): 6.25 µg/mL (≈ 15.2 µM)
MIC (Talaromyces marneffei): 6.25 µg/mL (≈ 15.2 µM)
SMILES: c1ccc(Cn2nnnc2SCCCSc2nnnn2-c2ccccc2)cc1

MIC (Mucor indicus): 6.25 to 100 µg/mL (≈ 12.1 to 193 µM)
MIC (Rhizopus arrhizus): 6.25 to 100 µg/mL (≈ 12.1 to 193 µM)
MIC (Aspergillus niger [8]): 6.25 to 100 µg/mL (≈ 12.1 to 193 µM)
MIC (Candida albicans [9]): 6.25 to 100 µg/mL (≈ 12.1 to 193 µM)
MIC (Aspergillus flavus [10]): 6.25 to 100 µg/mL (≈ 12.1 to 193 µM)
SMILES: O=C(O)c1cn(C2CC2)c2nc(N3CCN(CC(=O)c4nnnn4-c4ccccc4)CC3)c(F)cc2c1=O

MIC (Candida albicans [1]): 12.5 to 25 µg/mL (≈ 32.3 to 64.6 µM)
MIC (Nakaseomyces glabratus [3]): 12.5 to 50 µg/mL (≈ 32.3 to 129 µM)
MIC (Candida tropicalis [5]): 12.5 to 50 µg/mL (≈ 32.3 to 129 µM)
SMILES: Cc1cc2oc(-c3ccc(F)cc3)c(OCc3nnn[nH]3)c(=O)c2cc1Cl
Ratio (Nakaseomyces glabratus [2]): 16 - 64
Ratio (Candida tropicalis [4]): 16 - 64

MIC (Candida albicans [16]): 50 to 400 µg/mL (≈ 121 to 967 µM)
MIC (Aspergillus niger [17]): 50 to 400 µg/mL (≈ 121 to 967 µM)
SMILES: COc1ccc(C2c3ccc4ccccc4c3Oc3[nH]c(=S)n4nnnc4c32)cc1 (stereo not given)

MIC (Candida albicans [16]): 50 to 400 µg/mL (≈ 130 to 1040 µM)
MIC (Aspergillus niger [17]): 50 to 400 µg/mL (≈ 130 to 1040 µM)
SMILES: S=c1[nH]c2c(c3nnnn13)C(c1ccccc1)c1ccc3ccccc3c1O2 (stereo not given)

MIC (Candida albicans [1]): 12.5 to 25 µg/mL (≈ 36.9 to 73.9 µM)
MIC (Nakaseomyces glabratus [3]): 12.5 to 50 µg/mL (≈ 36.9 to 148 µM)
MIC (Candida tropicalis [5]): 12.5 to 50 µg/mL (≈ 36.9 to 148 µM)
SMILES: O=c1c(OCc2nnn[nH]2)c(-c2ccc(F)cc2)oc2ccccc12
Ratio (Nakaseomyces glabratus [2]): 16 - 64
Ratio (Candida tropicalis [4]): 16 - 64

MIC (Candida albicans [16]): 50 to 400 µg/mL (≈ 125 to 996 µM)
MIC (Aspergillus niger [17]): 50 to 400 µg/mL (≈ 125 to 996 µM)
SMILES: Fc1ccc(C2c3ccc4ccccc4c3Oc3[nH]c(=S)n4nnnc4c32)cc1 (stereo not given)

MIC (Candida albicans [1]): 12.5 to 50 µg/mL (≈ 30.7 to 123 µM)
MIC (Nakaseomyces glabratus [3]): 12.5 to 50 µg/mL (≈ 30.7 to 123 µM)
MIC (Candida tropicalis [5]): 12.5 to 50 µg/mL (≈ 30.7 to 123 µM)
SMILES: O=c1c(OCc2nnn[nH]2)c(-c2ccc(F)cc2)oc2c(Cl)cc(Cl)cc12
Ratio (Nakaseomyces glabratus [2]): 8 - 64
Ratio (Candida tropicalis [4]): 8 - 64
